Data taken from ChEMBL document CHEMBL4616726, “Optimization of the Linker Domain in a Dimeric Compound that Degrades an r(CUG) Repeat Expansion in Cells” (J Med Chem, 2020).
Active and inactive are the calls of the source. The calls are words filed in the database; no cut-off is given here.

Experiments:
r(CUG) repeat expansion [1] = assay: Induction of 5'-biotinylated r(CUG)12 RNA repeat (unknown origin) degradation assessed as disruption of r(CUG)12-MBNL1 complex formation incubated for 15 mins by TR-FRET assay; format: nucleic-acid assay
[2] = Induction of DNA damage in human DM1-patient derived myotubes at 1 uM assessed as induction of DNA double strand breaks by measuring gamma-H2AX foci formation by immunofluorescence assay relative to control; format: functional
[3] = Drug localization in cytoplasm of human DM1-patient derived myotubes by live-cell fluorescence microscopy; format: ADME, subcellular
r(CUG) repeat expansion [4] = assay: Induction of r(CUG)exp RNA repeat in human DM1-patient derived myotubes assessed as improvement in MBNL1 exon 5 splicing defect at 5 uM by RT-qPCR analysis relative to control; format: nucleic-acid assay
[5] = Drug uptake in human DM1-patient derived myotubes by fluorescence based assay; format: ADME; conditions: in vitro
r(CUG) repeat expansion [6] = assay: Induction of r(CUG)exp RNA repeat in human DM1-patient derived myotubes assessed as improvement in MBNL1 exon 5 splicing defect by RT-qPCR analysis; format: nucleic-acid assay
[7] = Drug localization in nucleus of human DM1-patient derived myotubes by live-cell fluorescence microscopy; format: ADME, subcellular
r(CUG) repeat expansion [8] = assay: Binding affinity to r(CUG)8 RNA repeat (unknown origin) by fluorescence based assay; format: nucleic-acid assay
r(CUG) repeat expansion [9] = assay: Induction of r(CUG)exp RNA repeat in human DM1-patient derived myotubes assessed as reduction in number of foci containing r(CUG)exp-MBNL1 foci at 5 uM by RNA fluorescence in situ hybridization assay; format: nucleic-acid assay
r(CUG) repeat expansion [10] = assay: Binding affinity to r(CUG)12 RNA repeat (unknown origin) by fluorescence based assay; format: nucleic-acid assay
r(CUG) repeat expansion [11] = assay: Induction of r(CUG)exp RNA repeat in human DM1-patient derived myotubes assessed as reduction in number of foci containing r(CUG)exp-MBNL1 foci at 5 uM by immunofluorescence assay; format: nucleic-acid assay
[12] = Toxicity in human DM1-patient derived myotubes at 5 uM

Structure (SMILES) | Activity (r(CUG) repeat expansion [1]) | Drug uptake [3] | Activity (r(CUG) repeat expansion [4]) | Drug uptake [5] | other results
Cc1c(N)nc([C@H](CC(N)=O)NC[C@H](N)C(N)=O)nc1C(=O)N[C@H](C(=O)N[C@H](C)[C@@H](O)[C@H](C)C(=O)N[C@H](C(=O)NCCc1nc(-c2nc(C(=O)NCCCNCCCCN)cs2)cs1)[C@@H](C)O)[C@@H](O[C@@H]1O[C@@H](CO)[C@@H](O)[C@H](O)[C@@H]1O[C@@H]1O[C@H](CO)[C@@H](O)[C@H](OC(N)=O)[C@@H]1O)c1cnc[nH]1 |  |  |  |  | fold change (FC) [2]: 6
CN1CCN(c2ccc3[nH]c(-c4ccc5[nH]c(-c6cccc(OCCCC(=O)N(C)CCCCN(CC(N)=O)C(=O)[C@@H]7CCCN7C(=O)[C@@H]7CCCN7C(=O)CCCOc7cccc(-c8nc9ccc(-c%10nc%11ccc(N%12CCN(C)CC%12)cc%11[nH]%10)cc9[nH]8)c7)c6)nc5c4)nc3c2)CC1 |  | Active | 30% | Active | IC50 (r(CUG) repeat expansion [1]): 5.3 µM; Activity (r(CUG) repeat expansion [6]): Dose-dependent effect; Drug uptake [7]: Active; EC50 (r(CUG) repeat expansion [8]): > 10 µM; Activity (r(CUG) repeat expansion [9]): Active; EC50 (r(CUG) repeat expansion [10]): 0.15 µM; Activity (r(CUG) repeat expansion [11]): Active
CN1CCN(c2ccc3[nH]c(-c4ccc5[nH]c(-c6cccc(OCCCC(=O)N(C)CCCCN(CC(N)=O)C(=O)[C@H](Cc7ccc(O)cc7)NC(=O)[C@H](Cc7ccc(O)cc7)NC(=O)[C@H](Cc7ccc(O)cc7)NC(=O)[C@H](Cc7ccc(O)cc7)NC(=O)CCCOc7cccc(-c8nc9ccc(-c%10nc%11ccc(N%12CCN(C)CC%12)cc%11[nH]%10)cc9[nH]8)c7)c6)nc5c4)nc3c2)CC1 |  |  |  |  | Activity [12]: Toxic

Now from value to compound, other results behind:

Activity (r(CUG) repeat expansion [1]) | Structure (SMILES) | Drug uptake [3] | Activity (r(CUG) repeat expansion [4]) | Drug uptake [5] | other results
Active | CN1CCN(c2ccc3[nH]c(-c4ccc5[nH]c(-c6cccc(OCCCC(=O)N(C)CCCCN(CC(N)=O)C(=O)[C@@H]7CCCN7C(=O)[C@@H]7CCCN7C(=O)[C@@H]7CCCN7C(=O)CCCOc7cccc(-c8nc9cc(-c%10nc%11cc(N%12CCN(C)CC%12)ccc%11[nH]%10)ccc9[nH]8)c7)c6)nc5c4)nc3c2)CC1 |  |  |  | 
Active | CN1CCN(c2ccc3[nH]c(-c4ccc5[nH]c(-c6cccc(OCCCC(=O)N(C)CCCCN(CC(N)=O)C(=O)[C@@H]7C[C@@H](O)CN7C(=O)[C@@H]7C[C@@H](O)CN7C(=O)[C@@H]7C[C@@H](O)CN7C(=O)[C@@H]7C[C@@H](O)CN7C(=O)CCCOc7cccc(-c8nc9ccc(-c%10nc%11ccc(N%12CCN(C)CC%12)cc%11[nH]%10)cc9[nH]8)c7)c6)nc5c4)nc3c2)CC1 | Active | inactive | Active | 
Active | CN1CCN(c2ccc3[nH]c(-c4ccc5[nH]c(-c6cccc(OCCCC(=O)N(C)CCCCN(CC(N)=O)C(=O)[C@@H]7CCCN7C(=O)[C@@H]7CCCN7C(=O)[C@@H]7CCCN7C(=O)[C@@H]7CCCN7C(=O)CCCOc7cccc(-c8nc9ccc(-c%10nc%11ccc(N%12CCN(C)CC%12)cc%11[nH]%10)cc9[nH]8)c7)c6)nc5c4)nc3c2)CC1 |  |  |  | 
